One series deals with Macrostomum lignano. How it is done:
Cultures of Macrostomum lignano (37) were grown in artificial seawater (ASW) enriched with f/2-medium (40) and fed ad libitum with the diatom Nitzschia curvilineata (PAE culture collection; UGent on the World Wide Web at pae.ugent.be/collection.htm), as described in references 41 and 43.
One week before starting chemical exposure, a six-well plate filled with 4 ml f/2 medium (Novolab NV) was inoculated with diatoms to achieve an ad libitum food source during exposure. Starvation of the worms leads to a decrease in stem cell proliferation (as shown in Nimeth et al (29)), which would interfere with stem cell proliferation, the endpoint of the assay. Before the start of exposure, fifteen adult worms per condition were pipetted in each well, which was then emptied by pipetting without drying out the worms and refilled with f/2 medium (control), if required, F2+0.05% DMSO (vehicle control) and a concentration of the chemical.
The DMSO concentration in the vehicle control never exceeded 0.05%. This represented the maximum DMSO percentage in the chemical's highest test concentration.
To select the appropriate compound concentration, first, a broad concentration range-finding experiment (spacing factor 10; two weeks exposure) was carried out. Based on this pilot range finding, a fine-tuned range finding (spacing factor less than or equal to 2; for D-Mannitol factor 5) was chosen to conduct the assay. The maximum concentration tested depended on the test compound solubility and the requirement of a survival of twelve out of fifteen worms at the end of exposure.
For all chemicals investigated in this disclosure, the medium was refreshed weekly.
After a preliminary test (CP as reference) on different exposure times ranging from two days to six weeks, the worms were exposed for a period of two weeks, after which they were subjected to phosphorylated histone H3 immunostaining (PH3) to quantify mitosis.
To quantify mitotic cells in whole mount specimens, the mitotic marker anti-PH3 was used. The staining was performed by first relaxing the animals in a 1:1 mixture of MgCl2.6H2O (7.14%) and ASW (5 minutes), then in MgCl2.6H2O (7.14%) (undiluted, 5 minutes), followed by fixation in paraformaldehyde (PFA, 4% in PBS, 60 minutes). Animals were then rinsed with phosphate-buffered saline (PBS, 3×5 minutes) and blocked in bovine serum albumin, containing TRITON® (BSA-T, 0.1% TRITON® X-100, 60 minutes). Subsequently, animals were incubated in primary rabbit-anti-phos-H3 (1:300 in BSA-T, overnight, 4° C., Upstate Biotechnology), rinsed in PBS (3×5 minutes) and incubated in secondary TRITC-conjugated swine-anti-rabbit (1:150 in BSA-T, 1 hour, DAKO). Finally, animals were washed with PBS (3×5 minutes) and slides were mounted using Vectashield (Vector Laboratories). Slides were analyzed using a Leica 2500P microscope equipped with epifluorescence, a 40× objective and a DFC360FX CCD camera.
All somatic PH3-positive cells were counted manually using the Image J cell counter plugin (44) (FIG. 1). Gonadal PH3+ cells were not included in the analysis because of 1) the high density of divisions in that region that can lead to overlapping signals and 2) the germ line representing a separate population of cells, differentially tolerant to exposure, which can result in quantification variability.
The cut-off value of the assay was determined based on density plots (R version 2.15.3; (33)) of the number of mitotic stem cells of all experiments for controls (sea water and DMSO), non-carcinogens, genotoxic carcinogens and non-genotoxic carcinogens. The cut-off value of 30 lays in the tail of the distribution corresponding to the 97.5 percentile or two standard deviations.
Concentrations resulting in the death of 20% of the worms (three out of fifteen) during exposure were considered cytotoxic and were not analyzed.

In series [1] the test system is Schmidtea mediterranea. The conditions noted are these: in vivo. How it is done: Asexual strains of the freshwater planarian Schmidtea mediterranea (38, 45) were maintained in culture medium, consisting of water, that was first deionized and then distilled, and to which the following nutrients were added: 1.6 mM NaCl, 1.0 mM CaCl2, 1.0 mM MgSO4, 0.1 mM MgCl2, 0.1 mM KCl and 1.2 mM NaHCO3. The animals were continuously kept in the dark at a room temperature of 20° C. and were fed once a week with veal liver.
Experiments were performed with regenerating animals (heads and tails) to accelerate initial responses to carcinogenic compounds, as this process of massive cell proliferation, migration and differentiation resembles the process of carcinogenesis, and, possibly differently affects the dynamics of stem cells toward genotoxic and non-genotoxic carcinogen exposures (16, 32, 39).
In each experimental condition, animals were cut transversally immediately before exposure to a genotoxic, non-genotoxic or non-carcinogen concentration, medium (control) or medium with DMSO (vehicle control). Exposures were performed in six-well plates (4 ml/well). To exclude intrinsic effects of DMSO on cell proliferation, the DMSO vehicle concentration never exceeded 0.05% and interaction effects between the test compound and DMSO were investigated using a two-way ANOVA (32). […] Animals were fed once a week with veal liver and starved for one week before stem cell proliferation measurements. Stem cell proliferation was measured after one day of regeneration (the mitotic minimum of regeneration), after three days (the mitotic maximum of regeneration), after one week (the end stage of regeneration) after two and six weeks (during homeostasis), as well as at the appearance of organismal phenotypes (15, 46, 47). Phenotypic effects were monitored daily with a stereo microscope.
An in vivo study allows the investigation of the entire organism's response to carcinogenic compounds and, as such, makes it possible to link carcinogen-induced stem cell proliferation with the organism's phenotype. Conditions were subdivided according to their phenotypic effects into concentrations that caused no observable phenotypic effects (category 1), phenotypic effects (category 2, described in phenotypic effect screening) and concentrations that induced organismal death (category 3). Phenotypic parameters that were monitored daily were tissue regression, lesion, blisters, bloating, pigmentation, behavior, regenerative success, body size, tissue outgrowth, flattened posture and organismal death (35). Stem cell proliferation was quantified at the appearance of systemic effects (category 2 concentrations).

In series [2] the test system is Schmidtea mediterranea. The conditions noted are these: in vivo. How it is done: Asexual strains of the freshwater planarian Schmidtea mediterranea (38, 45) were maintained in culture medium, consisting of water, that was first deionized and then distilled, and to which the following nutrients were added: 1.6 mM NaCl, 1.0 mM CaCl2, 1.0 mM MgSO4, 0.1 mM MgCl2, 0.1 mM KCl and 1.2 mM NaHCO3. The animals were continuously kept in the dark at a room temperature of 20° C. and were fed once a week with veal liver. […]
In each experimental condition, animals were cut transversally immediately before exposure to a genotoxic, non-genotoxic or non-carcinogen concentration, medium (control) or medium with DMSO (vehicle control). […] Stem cell proliferation was measured after one day of regeneration (the mitotic minimum of regeneration), after three days (the mitotic maximum of regeneration), after one week (the end stage of regeneration) after two and six weeks (during homeostasis), as well as at the appearance of organismal phenotypes (15, 46, 47). Phenotypic effects were monitored daily with a stereo microscope.
The source holds these as a separate data set.

The nature of series [3]: Solubility of test compound in the exposure medium. The class given is physicochemical. The conditions noted are these: concentrations higher than 5 mM.

Like-named read-outs stand apart in the source and are kept apart here.

Regarding `OC[C@@H](O)[C@@H](O)[C@H](O)[C@H](O)CO` [D-mannitol], the “proportion of worms having 30 or more mitotic stem cells” value in the series with Macrostomum lignano (1000 μM, Experiment 1, two weeks exposure) stood at 0%; with Macrostomum lignano (1000 μM, Experiment 2, two weeks exposure) it was 0%; in the series on Macrostomum lignano (1000 μM, Experiment 3, two weeks exposure), 0%; in the series with Macrostomum lignano (5000 μM, Experiment 1, two weeks exposure), 0%; in the series on Macrostomum lignano (5000 μM, Experiment 2, two weeks exposure) it was 0%; with Macrostomum lignano (5000 μM, Experiment 3, two weeks exposure), 0%. Besides, the “concentration up to which predicted negative” value in the series on Macrostomum lignano (all three experiments, two weeks exposure) is recorded as “up to 5 mM”. Also, the “worms having a number of mitotic stem cells exceeding the cut-off value” in the series on Macrostomum lignano (all three experiments, up to 5 mM, two weeks exposure) worked out at 0%. In addition, the “prediction by the assay in the experiments” value in the series with Macrostomum lignano (two weeks exposure, outcome over the experiments) is “predicted negative by the assay for all three experiments”. Besides, in the series with Schmidtea mediterranea [1], the “phenotypic effects induced by exposure” value is reported as “no phenotypic effects”. The “effects on proliferative responses” value in the series on Schmidtea mediterranea [2] is listed as “no significant effects”. Besides, the “solubility in the medium” value in series [3] is “insolubility in the medium”.

The values are drawn from patent US10197556B2, “Methods to detect non-genotoxic carcinogens using flatworms” (Universiteit Gent, priority 2015, dated 2019).
